Experimental data reported in article PMC11315827 (Drugs in R&D, 2024).
Values joined by “and” are separate entries in the source; they are usually repeats but may differ in a detail not shown here. Equal values may be shown once.

Experiments:
[1] = Nonhuman primate PK study, plasma and CSF; conditions: for unbound partition coefficient Kp,uu CSF: based on plasma free fractions; for half-life / Cmax: male, cynomolgus monkey, in vivo, po; for Cmax: plasma Cmax
BTK = BTK (Homo sapiens, UniProt Q06187); conditions: "reported as"; cited from earlier work
[2] = test system: Ramos cell expression of CD69 (BTK signaling); assay: cells; conditions: Homo sapiens, 18 h, read-out: apparent IC50 (CD69 expression)
BLK = BLK (Homo sapiens, UniProt P51451); assay: Kinase screening assays
BMX = biological target: T1, BMX (Homo sapiens, UniProt P51813); assay: Kinase screening assays
T1 sequence (P51813 1-675): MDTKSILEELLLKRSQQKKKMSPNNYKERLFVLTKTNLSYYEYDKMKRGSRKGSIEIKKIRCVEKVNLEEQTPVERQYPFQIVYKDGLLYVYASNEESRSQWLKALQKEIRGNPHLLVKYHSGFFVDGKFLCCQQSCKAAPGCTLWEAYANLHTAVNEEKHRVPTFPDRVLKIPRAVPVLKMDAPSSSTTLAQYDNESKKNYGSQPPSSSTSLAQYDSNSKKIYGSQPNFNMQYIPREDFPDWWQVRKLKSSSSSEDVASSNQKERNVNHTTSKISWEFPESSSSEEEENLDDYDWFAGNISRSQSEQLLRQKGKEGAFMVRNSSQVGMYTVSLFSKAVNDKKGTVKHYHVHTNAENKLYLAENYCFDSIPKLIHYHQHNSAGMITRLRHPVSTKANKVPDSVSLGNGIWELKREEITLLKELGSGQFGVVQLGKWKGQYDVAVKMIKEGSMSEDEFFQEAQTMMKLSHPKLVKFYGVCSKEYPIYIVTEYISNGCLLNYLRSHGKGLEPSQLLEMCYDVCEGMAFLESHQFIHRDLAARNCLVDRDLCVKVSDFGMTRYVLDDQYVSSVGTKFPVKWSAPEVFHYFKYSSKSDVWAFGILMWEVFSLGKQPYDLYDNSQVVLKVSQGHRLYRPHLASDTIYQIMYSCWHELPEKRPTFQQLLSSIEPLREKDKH

TXK = biological target: T2, TXK (Homo sapiens, UniProt P42681); assay: Kinase screening assays
T2 sequence (P42681 1-527): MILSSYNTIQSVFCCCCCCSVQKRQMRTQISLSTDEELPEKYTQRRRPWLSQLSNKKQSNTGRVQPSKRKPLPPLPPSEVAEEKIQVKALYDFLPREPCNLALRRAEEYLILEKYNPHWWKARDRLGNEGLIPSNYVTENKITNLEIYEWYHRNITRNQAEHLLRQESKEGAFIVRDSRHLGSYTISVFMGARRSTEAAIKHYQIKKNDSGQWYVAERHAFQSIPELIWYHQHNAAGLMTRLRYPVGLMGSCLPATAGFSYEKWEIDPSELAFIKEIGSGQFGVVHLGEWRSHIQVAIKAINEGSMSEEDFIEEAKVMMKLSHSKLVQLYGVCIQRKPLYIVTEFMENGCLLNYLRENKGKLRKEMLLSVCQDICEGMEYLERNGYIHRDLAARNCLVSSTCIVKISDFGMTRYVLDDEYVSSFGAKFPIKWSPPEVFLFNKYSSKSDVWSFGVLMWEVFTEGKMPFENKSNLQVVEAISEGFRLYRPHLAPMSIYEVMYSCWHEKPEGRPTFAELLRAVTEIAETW

Chain of BTK (Q06187 whole entry): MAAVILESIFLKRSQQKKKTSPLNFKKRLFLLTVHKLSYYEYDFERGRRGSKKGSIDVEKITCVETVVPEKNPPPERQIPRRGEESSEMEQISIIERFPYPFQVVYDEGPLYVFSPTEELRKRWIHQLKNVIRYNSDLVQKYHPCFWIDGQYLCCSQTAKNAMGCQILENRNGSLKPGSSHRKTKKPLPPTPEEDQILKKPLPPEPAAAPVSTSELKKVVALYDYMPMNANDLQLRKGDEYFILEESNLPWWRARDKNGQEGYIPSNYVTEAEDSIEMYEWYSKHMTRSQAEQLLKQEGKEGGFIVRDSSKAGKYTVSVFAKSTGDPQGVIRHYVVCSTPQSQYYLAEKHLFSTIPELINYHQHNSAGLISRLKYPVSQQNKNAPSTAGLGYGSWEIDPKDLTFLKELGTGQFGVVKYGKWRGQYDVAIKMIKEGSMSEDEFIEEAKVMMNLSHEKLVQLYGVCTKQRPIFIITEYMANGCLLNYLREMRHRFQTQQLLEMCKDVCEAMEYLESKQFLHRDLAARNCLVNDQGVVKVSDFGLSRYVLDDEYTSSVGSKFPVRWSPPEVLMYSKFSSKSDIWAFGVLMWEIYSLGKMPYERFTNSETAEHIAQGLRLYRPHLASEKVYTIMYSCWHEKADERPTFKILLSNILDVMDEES
Chain of BLK (P51451 whole entry, species assumed): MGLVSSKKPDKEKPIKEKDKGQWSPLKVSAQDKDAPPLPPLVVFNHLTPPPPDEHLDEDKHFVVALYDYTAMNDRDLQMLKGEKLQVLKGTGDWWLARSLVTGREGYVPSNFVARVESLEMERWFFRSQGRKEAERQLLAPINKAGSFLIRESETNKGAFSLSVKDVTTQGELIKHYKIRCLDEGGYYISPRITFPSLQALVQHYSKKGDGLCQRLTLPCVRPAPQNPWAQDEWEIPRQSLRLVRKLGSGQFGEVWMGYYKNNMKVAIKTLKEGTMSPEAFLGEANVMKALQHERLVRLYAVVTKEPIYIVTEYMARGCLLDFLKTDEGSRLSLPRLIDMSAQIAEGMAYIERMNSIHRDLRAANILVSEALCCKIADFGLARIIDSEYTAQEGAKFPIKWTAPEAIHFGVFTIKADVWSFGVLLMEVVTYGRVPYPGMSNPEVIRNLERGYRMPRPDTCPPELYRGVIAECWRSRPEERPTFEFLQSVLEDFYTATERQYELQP

| unbound partition coefficient Kp,uu CSF [1] | half-life ([1]; 10 mg/kg) | Cmax ([1]; 10 mg/kg, oral 10 mg/kg) | terminal t1/2 for elimination ([1]; plasma, oral 10 mg/kg) | IC50 [2] | IC50 (BLK) | CSF Cmax ([1]; CSF, oral 10 mg/kg) | CSF exposure (Cmax) ([1]; CSF, oral 10 mg/kg, 10 mg/kg) | IC50 (BMX) | IC50 (TXK) | Structure (SMILES) | dissociation rate (BTK) |
| --- | --- | --- | --- | --- | --- | --- | --- | --- | --- | --- | --- |
| 0.131 | ~4 h | 287 ng/mL and 669 nM |  |  |  |  |  |  |  | C=CC(=O)N1CCC(CNc2ncnc(N)c2-c2ccc(Oc3ccccc3)cc2)CC1 [Evobrutinib] |  |
| 0.147 |  | 553 ng/mL and 853 nM | slightly prolonged | 19.8 nM |  |  |  |  |  | C[C@H]1CN(C2COC2)CCN1c1ccc(Nc2cc(-c3ccnc(N4CCn5c(cc6c5CC(C)(C)C6)C4=O)c3CO)cn(C)c2=O)nc1 [Fenebrutinib] | 1.52e-05 s⁻¹ |
| 0.397 | ~4 h | 103 ng/mL and 226 nM |  |  | ≤ 4 nM | 9.6 nM | 4.4 ng/mL | ≤ 4 nM | ≤ 4 nM | C=CC(=O)N1CCC[C@@H](n2c(=O)n(-c3ccc(Oc4ccccc4)cc3)c3c(N)nccc32)C1 [Tolebrutinib] |  |
